For data set [1], the system named is Hepatitis C virus. Kind of data set: Antiviral activity against HCV with NS3-4A R155T mutation in human Huh7.5 cells assessed as replication capacity by luciferase assay relative to wild type HCV. It counts as functional, Hepacivirus hominis, Huh-7.
The subject of data set [2] is Hepatitis C virus. Kind of data set: Ratio of IC50 for HCV 1b with NS3-4A R155T mutation to IC50 for wild type HCV 1b. Format: functional, Hepacivirus hominis, genotype 1b.
The test system of data set [3] is Hepatitis C virus. Kind of data set: (§1) Antiviral activity against HCV 1b with NS3-4A R155T mutation in human Huh7 cells after 48 hrs by replicon cell assay. To be noted: genotype 1b, Huh-7, 48 h. It counts as functional, organism-based, Hepacivirus hominis.
The subject of data set [4] is Hepatitis C virus. The data set is described as follows: Antiviral activity against HCV 1b with NS3-4A R155G mutation in human Huh7 cells after 48 hrs by replicon cell assay. Format: functional, organism-based, Hepacivirus hominis. As to conditions: genotype 1b, Huh-7, 48 h.
The target of data set [5] is NS3 protease (Hepacivirus C, UniProt C1KIQ2, R155S). The data set is described as follows: Inhibition of HCV 1a NS3-4A protease R155S mutant after 60 mins. On the set-up: species or system Hepatitis C virus subtype 1a.
The subject of data set [6] is Hepatitis C virus. Kind of data set: Ratio of IC50 for HCV 1b with NS3-4 R155K mutation to IC50 for wild type HCV 1b. It counts as functional, Hepacivirus hominis, genotype 1b.
Data set [7] relates to Hepatitis C virus. Kind of data set: Antiviral activity against HCV 1b with NS3-4A R155M mutation in human Huh7 cells after 48 hrs by replicon cell assay. Format: functional, organism-based, Hepacivirus hominis. To be noted: genotype 1b, Huh-7, 48 h.
Data set [8] deals with Hepatitis C virus. The data set is described as follows: Antiviral activity against wild type HCV 1b Con1 in human Huh7 cells after 48 hrs by replicon cell assay. It counts as functional, organism-based, Hepacivirus hominis. To be noted: genotype 1b Con 1, Huh-7, 48 h.
Data set [9] relates to Hepatitis C virus. Kind of data set: Antiviral activity against HCV with NS3-4A R155M mutation in human Huh7.5 cells assessed as replication capacity by luciferase assay relative to wild type HCV. It counts as functional, Hepacivirus hominis, Huh-7.
Data set [10] concerns Hepatitis C virus. The description is as §1. It counts as functional, organism-based, Hepacivirus hominis. As to conditions: genotype 1b, Huh-7, 48 h. This is another data set of the same source.
Data set [11] concerns Hepatitis C virus. The data set is described as follows: Antiviral activity against HCV with NS3-4A R155G mutation in human Huh7.5 cells assessed as replication capacity by luciferase assay relative to wild type HCV. It counts as functional, Hepacivirus hominis, Huh-7.
Data set [12] has as its target NS3 protease (Hepacivirus C, UniProt C1KIQ2, R155I). The data set is described as follows: Inhibition of HCV 1a NS3-4A R155I mutant protease after 60 mins. Further details: species or system Hepatitis C virus subtype 1a.
The subject of data set [13] is Hepatitis C virus. Kind of data set: Ratio of IC50 for HCV 1b with NS3-4A R155M mutation to IC50 for wild type HCV 1b. Format: functional, Hepacivirus hominis, genotype 1b.
Data set [14] in a line: Inhibition of wild type HCV 1a NS3-4A protease after 60 mins.
Data set [15] deals with Hepatitis C virus. Kind of data set: Antiviral activity against HCV 1b Con1 with NS3-4A R155K mutation in human Huh7 cells after 48 hrs by replicon cell assay. It counts as functional, organism-based, Hepacivirus hominis. To be noted: genotype 1b Con 1, Huh-7, 48 h.
The target in data set [16] is NS3 protease (Hepacivirus C, UniProt C1KIQ2, R155T). Kind of data set: Inhibition of HCV 1a NS3-4A R155T mutant protease after 60 mins. Further details: species or system Hepatitis C virus subtype 1a.
Data set [17] relates to Hepatitis C virus. Kind of data set: Antiviral activity against wild type HCV in human Huh7.5 cells assessed as replication capacity by luciferase assay. Format: functional, Hepacivirus hominis, Huh-7.
The target of data set [18] is NS3 protease (Hepacivirus C, UniProt C1KIQ2, R155K). The data set is described as follows: Inhibition of HCV 1a NS3-4A R155K mutant protease after 60 mins. On the set-up: species or system Hepatitis C virus subtype 1a.
Data set [19] relates to Hepatitis C virus. Kind of data set: Ratio of IC50 for HCV 1b with NS3-4A R155G mutation to IC50 for wild type HCV 1b. Format: functional, Hepacivirus hominis, genotype 1b.
Data set [20] has as its system Hepatitis C virus. The data set is described as follows: Antiviral activity against HCV with NS3-4A R155I mutation in human Huh7.5 cells assessed as replication capacity by luciferase assay relative to wild type HCV. Format: functional, Hepacivirus hominis, Huh-7.
Data set [21] has as its system Hepatitis C virus. Kind of data set: Antiviral activity against HCV with NS3-4A R155S mutation in human Huh7.5 cells assessed as replication capacity by luciferase assay relative to wild type HCV. Format: functional, Hepacivirus hominis, Huh-7.
In data set [22] the test system is Hepatitis C virus. Kind of data set: Antiviral activity against HCV with NS3-4A R155K mutation in human Huh7.5 cells after assessed as replication capacity by luciferase assay relative to wild type HCV. Format: functional, Hepacivirus hominis, Huh-7.
For data set [23], the system named is Hepatitis C virus subtype 1a.
Description: Activity of wild type HCV 1a NS3-4A protease
The test system of data set [24] is Hepatitis C virus. Kind of data set: Ratio of IC50 for HCV 1b with NS3-4A R155S mutation to IC50 for wild type HCV 1b. Format: functional, Hepacivirus hominis, genotype 1b.
The subject of data set [25] is Hepatitis C virus. The data set is described as follows: Ratio of IC50 for HCV 1b with NS3-4A R155I mutation to IC50 for wild type HCV 1b. It counts as functional, Hepacivirus hominis, genotype 1b.
In data set [26] the test system is Hepatitis C virus. Kind of data set: Antiviral activity against HCV 1b with NS3-4A R155I mutation in human Huh7 cells after 48 hrs by replicon cell assay. As to conditions: genotype 1b, Huh-7, 48 h. It counts as functional, organism-based, Hepacivirus hominis.
Substrate in data set [27]: CCC[C@H](NC(=O)[C@@H]1[C@H]2CCC[C@H]2CN1C(=O)[C@@H](NC(=O)[C@@H](NC(=O)c1cnccn1)C1CCCCC1)C(C)(C)C)C(=O)C(=O)NC1CC1
To be noted: Hepatitis C virus subtype 1a.

Substrate in data set [28]: CCC[C@H](NC(=O)[C@@H]1[C@H]2CCC[C@H]2CN1C(=O)[C@@H](NC(=O)[C@@H](NC(=O)c1cnccn1)C1CCCCC1)C(C)(C)C)C(=O)C(=O)NC1CC1
To be noted: Hepatitis C virus subtype 1a. The source holds these as a separate data set.

Substrate in data set [29]: CCC[C@H](NC(=O)[C@@H]1[C@H]2CCC[C@H]2CN1C(=O)[C@@H](NC(=O)[C@@H](NC(=O)c1cnccn1)C1CCCCC1)C(C)(C)C)C(=O)C(=O)NC1CC1
As to conditions: Hepatitis C virus subtype 1a. This is another data set of the same source.

Chain of NS3 protease (Hepacivirus C, UniProt C1KIQ2, R155I) (C1KIQ2 entry or part of it R155I): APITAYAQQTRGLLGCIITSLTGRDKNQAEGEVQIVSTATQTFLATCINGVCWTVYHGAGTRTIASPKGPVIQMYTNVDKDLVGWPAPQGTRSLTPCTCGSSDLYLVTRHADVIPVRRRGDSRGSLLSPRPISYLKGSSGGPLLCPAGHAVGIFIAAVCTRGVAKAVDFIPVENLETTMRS

On to `CCC[C@H](NC(=O)[C@@H]1[C@H]2CCC[C@H]2CN1C(=O)[C@@H](NC(=O)[C@@H](NC(=O)c1cnccn1)C1CCCCC1)C(C)(C)C)C(=O)C(=O)NC1CC1` [TELAPREVIR], for which the Activity with Hepatitis C virus [1] was determined as 41%; in the data set with Hepatitis C virus [9], 18%; with Hepatitis C virus [11] it was 10%; with Hepatitis C virus [17], 100%; in the data set with Hepatitis C virus [20] it was 19%; in the data set with Hepatitis C virus [21], 45%. Besides, the Activity with Hepatitis C virus [22] is listed as 80%. Further, the “fold change (FC)” value in the data set with Hepatitis C virus [2] was 19.8; in the data set with Hepatitis C virus [6] it was 7.4; in the data set with Hepatitis C virus [13], 5.5; in the data set with Hepatitis C virus [19], 7.4; in the data set with Hepatitis C virus [24], 4.1; in the data set with Hepatitis C virus [25], 24. Also, the concentration for half-maximal inhibition (IC50) in the data set on Hepatitis C virus [3] was found to be 2 µM; in the data set with Hepatitis C virus [4], 3.6 µM; at NS3 protease [5] it was 1.15 µM; in the data set with Hepatitis C virus [7] it was 2.7 µM; in the data set with Hepatitis C virus [8] it was 0.49 µM; in the data set on Hepatitis C virus [10], 9.6 µM. Besides, the IC50 is 0.88 µM at NS3 protease [12]; 0.05 µM in data set [14]; 3.6 µM in the data set with Hepatitis C virus [15]; 0.49 µM against NS3 protease [16]; 0.51 µM at NS3 protease [18]; 11.7 µM in the data set with Hepatitis C virus [26]. In addition, the Km in [23] worked out at 53 µM.
As for `NC(=O)c1ncn([C@@H]2O[C@H](CO)[C@@H](O)[C@H]2O)n1` [RIBAVIRIN], the “fold change (FC)” value in the data set with Hepatitis C virus [2] is on record as 0.6; with Hepatitis C virus [6], 0.6; with Hepatitis C virus [19], 0.7. Moreover, the IC50 amounted to 39 µM with Hepatitis C virus [7], 58 µM in the data set on Hepatitis C virus [8], 32 µM with Hepatitis C virus [10] and 37 µM with Hepatitis C virus [15].

B1: NS3 protease (Hepacivirus C), C1KIQ2 R155K (protein)
chain: APITAYAQQTRGLLGCIITSLTGRDKNQAEGEVQIVSTATQTFLATCINGVCWTVYHGAGTRTIASPKGPVIQMYTNVDKDLVGWPAPQGTRSLTPCTCGSSDLYLVTRHADVIPVRRRGDSRGSLLSPRPISYLKGSSGGPLLCPAGHAVGIFKAAVCTRGVAKAVDFIPVENLETTMRS
Regarding B1, the Km in data set [27] turned out to be 168 µM.

B2: NS3 protease (Hepacivirus C), C1KIQ2 R155T (protein)
chain: APITAYAQQTRGLLGCIITSLTGRDKNQAEGEVQIVSTATQTFLATCINGVCWTVYHGAGTRTIASPKGPVIQMYTNVDKDLVGWPAPQGTRSLTPCTCGSSDLYLVTRHADVIPVRRRGDSRGSLLSPRPISYLKGSSGGPLLCPAGHAVGIFTAAVCTRGVAKAVDFIPVENLETTMRS
For B2, the Km in [28] came to 68 µM.

B3: NS3 protease (Hepacivirus C), C1KIQ2 R155S (protein)
chain: APITAYAQQTRGLLGCIITSLTGRDKNQAEGEVQIVSTATQTFLATCINGVCWTVYHGAGTRTIASPKGPVIQMYTNVDKDLVGWPAPQGTRSLTPCTCGSSDLYLVTRHADVIPVRRRGDSRGSLLSPRPISYLKGSSGGPLLCPAGHAVGIFSAAVCTRGVAKAVDFIPVENLETTMRS
Consider B3, for which the Km in data set [29] is 552 µM.

The record behind these values is ChEMBL document CHEMBL1156474, “Phenotypic and structural analyses of hepatitis C virus NS3 protease Arg155 variants: sensitivity to telaprevir (VX-950) and interferon alpha” (J Biol Chem, 2007).
